# Tested on: HUVEC/MSC spheroids viability
# Assay: Human HUVEC/MSC cell line growth inhibition [KRAS2];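 for viability, T/C: percent of DMSO vehicle control luminescence so 100% = untreated viability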
# Details: for IC50: curve of first compound; for viability, T/C: stronger effect = lower value
# Procedure, shortened: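 Stroma-only multicellular spheroids, formed from HUVEC and human MSCs at passages </=5, received RAS-pathway inhibitors with or without a second targeted drug. Dosing followed half-log dilutions from clinically achievable levels.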
# [1] = second compound 0.00949 µM, first compound 0.0316 µM
# [2] = second compound 0.00949 µM, first compound 0.1 µM
# [3] = second compound 0.00949 µM, first compound 0.316 µM
# [4] = second compound 0.00949 µM, first compound 1 µM
# [5] = second compound 0.00949 µM, first compound 3.16 µM
# [6] = second compound 0.00949 µM, first compound 10 µM
# [7] = second compound 0.03 µM, first compound 0.0316 µM
# [8] = second compound 0.03 µM, first compound 0.1 µM
# [9] = second compound 0.03 µM, first compound 0.316 µM
# [10] = second compound 0.03 µM, first compound 1 µM
# [11] = second compound 0.03 µM, first compound 3.16 µM
# [12] = second compound 0.03 µM, first compound 10 µM
# [13] = second compound 0.0949 µM, first compound 0.0316 µM
# [14] = second compound 0.0949 µM, first compound 0.1 µM
# [15] = second compound 0.0949 µM, first compound 0.316 µM
# [16] = second compound 0.0949 µM, first compound 1 µM
# [17] = second compound 0.0949 µM, first compound 3.16 µM
# [18] = second compound 0.0949 µM, first compound 10 µM
# [19] = second compound 0.3 µM, first compound 0.0316 µM
# [20] = second compound 0.3 µM, first compound 0.1 µM
# [21] = second compound 0.3 µM, first compound 0.316 µM
# [22] = second compound 0.3 µM, first compound 1 µM
# [23] = second compound 0.3 µM, first compound 3.16 µM
# [24] = second compound 0.3 µM, first compound 10 µM
# [25] = second compound 0.949 µM, first compound 0.0316 µM
# [26] = second compound 0.949 µM, first compound 0.1 µM
# [27] = second compound 0.949 µM, first compound 0.316 µM
# [28] = second compound 0.949 µM, first compound 1 µM
# [29] = second compound 0.949 µM, first compound 3.16 µM
# [30] = second compound 0.949 µM, first compound 10 µM
# [31] = second compound 3 µM, first compound 0.0316 µM
# [32] = second compound 3 µM, first compound 0.1 µM
# [33] = second compound 3 µM, first compound 0.316 µM
# [34] = second compound 3 µM, first compound 1 µM
# [35] = second compound 3 µM, first compound 3.16 µM
# [36] = second compound 3 µM, first compound 10 µM
smiles,measurement,setting,value
CC1COCCN1c1cc(-c2ccnn2C)c2ccnc(-c3ccn[nH]3)c2n1 (stereo not drawn) + C=CC(=O)N1CCN(c2nc(OCC3CCCN3C)nc3c2CCN(c2cccc4cccc(C)c24)C3)CC1CC#N,IC50,second compound 0.00949 µM,1210 nM
same,IC50,second compound 0.03 µM,916 nM
same,IC50,second compound 0.0949 µM,635 nM
same,IC50,second compound 0.3 µM,661 nM
same,IC50,second compound 0.949 µM,362 nM
same,IC50,second compound 3 µM,> 3000 nM
same,"viability, T/C","second compound 0.00949 µM, first compound 0.00949 µM",79.3%
same,"viability, T/C","second compound 0.00949 µM, first compound 0.03 µM",76.5%
same,"viability, T/C","second compound 0.00949 µM, first compound 0.0949 µM",77%
same,"viability, T/C","second compound 0.00949 µM, first compound 0.3 µM",77%
same,"viability, T/C","second compound 0.00949 µM, first compound 0.949 µM",51.9%
same,"viability, T/C","second compound 0.00949 µM, first compound 3 µM",42.8%
same,"viability, T/C","second compound 0.03 µM, first compound 0.00949 µM",87.7%
same,"viability, T/C","second compound 0.03 µM, first compound 0.03 µM",90.9%
same,"viability, T/C","second compound 0.03 µM, first compound 0.0949 µM",77.6%
same,"viability, T/C","second compound 0.03 µM, first compound 0.3 µM",66.6%
same,"viability, T/C","second compound 0.03 µM, first compound 0.949 µM",49.7%
same,"viability, T/C","second compound 0.03 µM, first compound 3 µM",37.9%
same,"viability, T/C","second compound 0.0949 µM, first compound 0.00949 µM",73.5%
same,"viability, T/C","second compound 0.0949 µM, first compound 0.03 µM",85.3%
same,"viability, T/C","second compound 0.0949 µM, first compound 0.0949 µM",70.8%
same,"viability, T/C","second compound 0.0949 µM, first compound 0.3 µM",69.1%
same,"viability, T/C","second compound 0.0949 µM, first compound 0.949 µM",39.5%
same,"viability, T/C","second compound 0.0949 µM, first compound 3 µM",37.8%
same,"viability, T/C","second compound 0.3 µM, first compound 0.00949 µM",66.8%
same,"viability, T/C","second compound 0.3 µM, first compound 0.03 µM",71.4%
same,"viability, T/C","second compound 0.3 µM, first compound 0.0949 µM",72%
same,"viability, T/C","second compound 0.3 µM, first compound 0.3 µM",62.6%
same,"viability, T/C","second compound 0.3 µM, first compound 0.949 µM",44.2%
same,"viability, T/C","second compound 0.3 µM, first compound 3 µM",34.8%
same,"viability, T/C","second compound 0.949 µM, first compound 0.00949 µM",67.7%
same,"viability, T/C","second compound 0.949 µM, first compound 0.03 µM",65%
same,"viability, T/C","second compound 0.949 µM, first compound 0.0949 µM",68%
same,"viability, T/C","second compound 0.949 µM, first compound 0.3 µM",51.5%
same,"viability, T/C","second compound 0.949 µM, first compound 0.949 µM",45%
same,"viability, T/C","second compound 0.949 µM, first compound 3 µM",40.1%
same,"viability, T/C","second compound 3 µM, first compound 0.00949 µM",81.6%
same,"viability, T/C","second compound 3 µM, first compound 0.03 µM",78.6%
same,"viability, T/C","second compound 3 µM, first compound 0.0949 µM",86%
same,"viability, T/C","second compound 3 µM, first compound 0.3 µM",81.2%
same,"viability, T/C","second compound 3 µM, first compound 0.949 µM",54.5%
same,"viability, T/C","second compound 3 µM, first compound 3 µM",50.4%
CC1OCC2(CCN(c3cnc(Sc4ccnc(N)c4Cl)c(N)n3)CC2)C1N (stereo not drawn) + C=CC(=O)N1CCN(c2nc(OCC3CCCN3C)nc3c2CCN(c2cccc4cccc(C)c24)C3)CC1CC#N,IC50,second compound 0.00949 µM,> 10000 nM
same,IC50,second compound 0.03 µM,> 10000 nM
same,IC50,second compound 0.0949 µM,> 10000 nM
same,IC50,second compound 0.3 µM,> 10000 nM
same,IC50,second compound 0.949 µM,5360 nM
same,IC50,second compound 3 µM,387 nM
same,"viability, T/C",[1],112%
same,"viability, T/C",[2],102%
same,"viability, T/C",[3],99.9%
same,"viability, T/C",[4],82.3%
same,"viability, T/C",[5],71.1%
same,"viability, T/C",[6],73.6%
same,"viability, T/C",[7],109%
same,"viability, T/C",[8],116%
same,"viability, T/C",[9],89.8%
same,"viability, T/C",[10],87.3%
same,"viability, T/C",[11],66%
same,"viability, T/C",[12],67.9%
same,"viability, T/C",[13],98.5%
same,"viability, T/C",[14],96.4%
same,"viability, T/C",[15],90%
same,"viability, T/C",[16],79.5%
same,"viability, T/C",[17],74.1%
same,"viability, T/C",[18],66.5%
same,"viability, T/C",[19],86.7%
same,"viability, T/C",[20],90.7%
same,"viability, T/C",[21],89.4%
same,"viability, T/C",[22],69.1%
same,"viability, T/C",[23],72.9%
same,"viability, T/C",[24],56.1%
same,"viability, T/C",[25],63%
same,"viability, T/C",[26],79.5%
same,"viability, T/C",[27],83.2%
same,"viability, T/C",[28],71.8%
same,"viability, T/C",[29],60.4%
same,"viability, T/C",[30],37.9%
same,"viability, T/C",[31],55.4%
same,"viability, T/C",[32],67.6%
same,"viability, T/C",[33],48%
same,"viability, T/C",[34],35.7%
same,"viability, T/C",[35],4.99%
same,"viability, T/C",[36],0.43%
CCNC(=O)CC1N=C(c2ccc(Cl)cc2)c2cc(OC)ccc2-n2c(C)nnc21 (stereo not drawn) + C=CC(=O)N1CCN(c2nc(OCC3CCCN3C)nc3c2CCN(c2cccc4cccc(C)c24)C3)CC1CC#N,IC50,second compound 0.00949 µM,> 10000 nM
same,IC50,second compound 0.03 µM,> 10000 nM
same,IC50,second compound 0.0949 µM,> 10000 nM
same,IC50,second compound 0.3 µM,> 10000 nM
same,IC50,second compound 0.949 µM,> 10000 nM
same,IC50,second compound 3 µM,> 10000 nM
same,"viability, T/C",[1],68.5%
same,"viability, T/C",[2],79.5%
same,"viability, T/C",[3],69.5%
same,"viability, T/C",[4],115%
same,"viability, T/C",[5],100%
same,"viability, T/C",[6],90.3%
same,"viability, T/C",[7],82.6%
same,"viability, T/C",[8],76.9%
same,"viability, T/C",[9],79.1%
same,"viability, T/C",[10],108%
same,"viability, T/C",[11],119%
same,"viability, T/C",[12],110%
same,"viability, T/C",[13],73.3%
same,"viability, T/C",[14],63.3%
same,"viability, T/C",[15],78.8%
same,"viability, T/C",[16],115%
same,"viability, T/C",[17],97.8%
same,"viability, T/C",[18],111%
same,"viability, T/C",[19],72.8%
same,"viability, T/C",[20],64.3%
same,"viability, T/C",[21],60.5%
same,"viability, T/C",[22],102%
same,"viability, T/C",[23],91.9%
same,"viability, T/C",[24],104%
same,"viability, T/C",[25],53.3%
same,"viability, T/C",[26],63.1%
same,"viability, T/C",[27],82.7%
same,"viability, T/C",[28],74%
same,"viability, T/C",[29],83.7%
same,"viability, T/C",[30],86.1%
same,"viability, T/C",[31],75.5%
same,"viability, T/C",[32],89.9%
same,"viability, T/C",[33],82.7%
same,"viability, T/C",[34],67.1%
same,"viability, T/C",[35],71.2%
same,"viability, T/C",[36],54.3%
Cn1nccc1Nc1nccc(-c2cc3c(s2)C(C)(C)N(CCN2CCOCC2)C3=O)n1 + C=CC(=O)N1CCN(c2nc(OCC3CCCN3C)nc3c2CCN(c2cccc4cccc(C)c24)C3)CC1CC#N,IC50,second compound 0.00949 µM,2880 nM
same,IC50,second compound 0.03 µM,3050 nM
same,IC50,second compound 0.0949 µM,2890 nM
same,IC50,second compound 0.3 µM,3020 nM
same,IC50,second compound 0.949 µM,2420 nM
same,IC50,second compound 3 µM,1130 nM
same,"viability, T/C",[1],81.1%
same,"viability, T/C",[2],103%
same,"viability, T/C",[3],124%
same,"viability, T/C",[4],109%
same,"viability, T/C",[5],45.1%
same,"viability, T/C",[6],6.48%
same,"viability, T/C",[7],85.3%
same,"viability, T/C",[8],103%
same,"viability, T/C",[9],111%
same,"viability, T/C",[10],96.2%
same,"viability, T/C",[11],48.6%
same,"viability, T/C",[12],5.51%
same,"viability, T/C",[13],93.1%
same,"viability, T/C",[14],119%
same,"viability, T/C",[15],106%
same,"viability, T/C",[16],86.1%
same,"viability, T/C",[17],47.6%
same,"viability, T/C",[18],9.65%
same,"viability, T/C",[19],77.7%
same,"viability, T/C",[20],85.8%
same,"viability, T/C",[21],99.6%
same,"viability, T/C",[22],91%
same,"viability, T/C",[23],48.5%
same,"viability, T/C",[24],3.83%
same,"viability, T/C",[25],76.7%
same,"viability, T/C",[26],91.2%
same,"viability, T/C",[27],93.9%
same,"viability, T/C",[28],92.1%
same,"viability, T/C",[29],38.4%
same,"viability, T/C",[30],1.39%
same,"viability, T/C",[31],90.6%
same,"viability, T/C",[32],107%
same,"viability, T/C",[33],93.8%
same,"viability, T/C",[34],55.7%
same,"viability, T/C",[35],2.04%
same,"viability, T/C",[36],0.32%

# Reference: PubChem BioAssay AID2060912 (Molecular Pharmacology Branch, DTP, NCI, 2025)
